1 compound from PMC3784060 (Cancer Chemotherapy and Pharmacology, 2013) can be followed below.

One experiment relates to HL-60, MOLT-4, K562. Conditions: 24 or 72 vs. 2 h. The method, then: Primary leukemia cells for in vitro studies were isolated from BM or PB obtained from AML or ALL patients enrolled on a separate University of Maryland, Baltimore, IRB-approved protocol for tissue collection and not treated on this clinical study. The cells were isolated by gradient centrifugation using LSM (Mediatech) according to the manufacturer’s protocol. Cells were used either fresh or after viable freezing (FBS/10 % DMSO). Primary leukemia cells were cultured in RPMI 1640 (Invitrogen, Grand Island, NY, USA) supplemented with 15 % heat-inactivated FBS (HyClone Laboratories Inc., Red Bank, NJ, USA) and 200 mM L-Glutamine (Invitrogen). Leukemia cell lines HL-60 (AML), MOLT-4 (T cell ALL), and K562 (chronic myelogenous leukemia [CML] in erythroid blast transformation) were purchased from American Type Culture Collection (ATCC, Manassas, VA, USA) and cultured in RPMI 1640 (Invitrogen) supplemented with 10 % heat-inactivated FBS (HyClone Laboratories Inc.) and 200 mM L-Glutamine (Invitrogen).

The subject of experiment [1] is Mcl-1, phospho-Rb (Ser807/811), PARP cleavage. Nature of the experiment: pharmacodynamic Western blot on patients' PBMC. The format is in vivo, human. The method, then: For Western blot analysis, PB mononuclear cells (PBMC) were isolated by gradient centrifugation using lymphocyte separation medium (LSM) (Mediatech Inc., Manassas, VA, USA), and protein extracts were prepared and analyzed for the expression of Mcl-1, phospho-Rb (Ser807/811), and PARP cleavage as described below.
For Western blot analysis, leukemia cell pellets (primary leukemia cells, HL-60, MOLT-4, K562) were washed with PBS and lysed with RIPA buffer (Sigma-Aldrich, St. Louis, MO, USA) supplemented with Complete Mini™ protease inhibitor and PHOStop™ phosphatase inhibitors (Roche). Equal amounts of proteins up to 25 μg were separated on 4–12 % NuPAGE precast gels in 1X MOPS or 1X MES buffer (Invitrogen) and electro-blotted to PVDF membranes (Millipore, Billerica, MA, USA). The membranes were blocked with 5 % dry milk in 1X TBS/0.1 % Tween 20 for at least 1 h at room temperature. Blots were incubated with primary antibody (Ab) overnight at 4 °C, washed 3 times in TBS/0.1 % Tween 20, and then incubated with secondary Ab for 1 h at room temperature. Blots were washed three times, and the signal was detected with Amersham™ ECL™ detection systems (GE Healthcare, Pittsburgh, PA, USA). The following primary Abs were used: mouse anti-PARP (BD Pharmingen), rabbit anti-phospho-Rb (Ser807/811) and rabbit anti-Mcl-1 (both from Santa Cruz, Santa Cruz, CA, USA), rabbit anti-caspase 9 p35 and anti-caspase 3 (both from Cell Signaling, Danvers, MA, USA), and mouse anti-β-actin (Sigma-Aldrich). […] Secondary horseradish peroxidase-conjugated anti-mouse or anti-rabbit Abs were from Cell Signaling (Beverly, MA, USA). The Western blot signals were measured by densitometry using ImageJ 1.45I software (NIH, Bethesda, USA).
A general note: In western blotting, separated proteins are transferred to a membrane and probed.

For the compound `CCc1cnn2c(NCc3ccc[n+]([O-])c3)cc(N3CCCC[C@H]3CCO)nc12` [Dinaciclib], the “growth inhibitory and apoptosis-inducing effect of prolonged exposure” value in the experiment on HL-60, MOLT-4, K562 is “more potent growth inhibitory and apoptosis-inducing effect”. Further, the “down-regulation of Mcl-1” value in experiment [1] (PBMC 4 h after end of infusion, 4 specimens) is recorded as 34–76%. Besides, in experiment [1] (PBMC 4 h post-treatment), the PARP cleavage entry is reported as “Induction of PARP cleavage was also observed at 4 h”. The Mcl-1 expression result in experiment [1] (PBMC 4 h post-treatment, 1 AML and 3 ALL patients) is reported as “decrease in Mcl-1 was seen in all specimens”; in experiment [1] (PBMC 24 h post-treatment), “returned to baseline by 24 h”. Also, the “p-Rb (Ser807/811)” value in experiment [1] (PBMC, 2 patients had almost undetectable baseline p-Rb) is on record as “Decline in p-Rb was observed in 1 patient”.
